Measurements: EP4799619A1, “COMPOUND TARGETING EGR-1 AND USE THEREOF FOR TREATMENT OF ATOPIC DERMATITIS” (AgeraMedi, Inc., priority 2023, dated 2025)

Experiments:
TSLP = test: RT-PCR of EGR-1 target gene mRNA in TNFα-stimulated HaCaT cells: TSLP; type: cell-based, human; settings: 0, 5, 10, and 20 µM for 30 minutes, then TNFα 10 ng/mL for 12 hours, FIG. 14
Description: (§1) To determine whether the compounds of the present invention (Compounds 21, 23, and 25) inhibit expression of TSLP, IL-1β, and IL-6 genes, which are EGR-1 target genes playing a key role in atopic dermatitis exacerbation, the inhibitory effect of the compounds on mRNA expression of an EGR-1 target gene TSLP was evaluated by reverse transcription-polymerase chain reaction (RT-PCR) in HaCaT keratinocyte cells.
(§2) Specifically, HaCaT keratinocyte cells (purchased from Cell Lines Service, Eppelheim, Germany) were passaged at a seeding density of 1x10^6 cells per 100 mm cell culture dish in Dulbecco's modified Eagle's medium (Invitrogen Life Technologies) containing 10% fetal bovine serum (Invitrogen Life Technologies) and antibiotic-antifungal agent mix solution (Invitrogen Life Technologies), once every two days, and cultured at 37 °C in a 5% CO2 incubator.
(§3) HaCaT cells were treated with the compounds of the present invention (Compound 21, Compound 23, and Compound 25) at concentrations of 0, 5, 10, and 20 µM, respectively, for 30 minutes, followed by treatment with TNFα in a concentration of 10 ng/mL for 12 hours, after which the cells were harvested. Total RNA was extracted using TRIzol RNA isolation reagents (TRIzol Life Technologies Korea). A total of 0.5 µg of total RNA was reverse transcribed to synthesize complementary DNA (cDNA) according to the method recommended by the manufacturer using an iScript cDNA synthesis kit (Bio-Rad, Hercules, Calif., U.S.A.). PCR was performed using 0.0125 µg of double-stranded cDNA.
(§4) Glyceraldehyde-3-phosphate dehydrogenase (GAPDH), a housekeeping gene, was used as the control group. The double-stranded cDNA was denatured at 95 °C for 5 minutes and then subjected to cycles of reaction at 94 °C for 1 minute, 65 °C for 2 minutes, and 70 °C for 1 minute, repeated 30 times. The final product of PCR was electrophoresed on 1% agarose gel, stained with ethidium bromide (EtBr), and confirmed.

IL-1β = test: RT-PCR of EGR-1 target gene mRNA in TNFα-stimulated HaCaT cells: IL-1β; type: cell-based, human; settings: 0, 5, 10, and 20 µM for 30 minutes, then TNFα 10 ng/mL for 12 hours, FIG. 14
Description: as §1, §2, §3, §4

IL-6 = test: RT-PCR of EGR-1 target gene mRNA in TNFα-stimulated HaCaT cells: IL-6; type: cell-based, human; settings: 0, 5, 10, and 20 µM for 30 minutes, then TNFα 10 ng/mL for 12 hours, FIG. 14
Description: as §1, §2, §3, §4

[1] = test system: animal model of atopic dermatitis; test: DNCB-induced animal model of atopic dermatitis, topical application; type: in vivo, BALB/c mice; settings: 0.1% applied to ear; for epidermal thickness / dermal thickness: day 22, H&E staining; for epidermal thickness: normal 24.47±2.353, DNCB only 37.27±4.393; for dermal thickness: normal 143.2±19.61, DNCB only 197.5±17.83; for macroscopic skin condition: day 22, FIG. 15B; for expression of filaggrin / expression of TSLP: immunofluorescence of skin tissue; for expression of filaggrin: FIG. 17B; for expression of TSLP: compared to positive control group, FIG. 17A; for expression of MPO (neutrophil marker) / expression of F4/80 (macrophage marker): immunohistochemistry; for expression of MPO (neutrophil marker): FIG. 16C; for expression of F4/80 (macrophage marker): FIG. 16D; for mast cell infiltration / number of mast cells infiltrated: toluidine blue staining; for mast cell infiltration: compared to the positive control group, FIG. 16A; for number of mast cells infiltrated: normal 11±3, DNCB 38±6
EGR-1 [2] = target: T1, EGR-1 (Homo sapiens, UniProt P18146); test: EGR-1 DNA binding activity assay (EDBA); set-up: made in house; settings: EGR-1 DNA binding inhibitory activity; EGR-1 overexpressing cell lysate; absorbance at 450 nm; compound concentration not given
How it was run: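 Compound pre-incubated 30 min at room temperature with EGR-1-overexpressing cell lysate (10 mM Tris pH 7.5, 50 mM KCl, 2% BSA, 8% glycerol), then 1 h on avidin-immobilised biotin-EBS duplex DNA. Bound EGR-1 detected by antibody ELISA with HRP/TMB at 450 nm; % inhibition versus lysate-only wells.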

EGR-1 [3] = target: T1, EGR-1; test: Electrophoretic mobility shift assay (EMSA) of EGR-1 DNA binding; set-up: made in house; host or cells: Sf21 insect cells (crude cell extract); settings: EGR-1 overexpressing Sf21 cell extract, biotin-labeled probe; FIG. 13
Description: When a nucleic acid and a protein are bound to each other, the complex of the nucleic acid and the protein moves more slowly than the nucleic acid alone, so that in an EMSA, a band of the nucleic acid bound to the protein appears higher than a band of only the nucleic acid.
In detail, the protein-DNA binding was analyzed by purchasing a LightShift Chemiluminescence EMSA kit (ThermoFisher Scientific, Waltham, MA, USA). The probe sequence for EGR-1 was synthesized by Macrogen company (Seoul, Korea) by ordering a deoxynucleotide labeled with biotin at the EGR-1 binding sequence (5'-biotin-AGAGTGTGTCTCCTTCGCACACATC-3'). The EGR-1 protein used in the experiment was an Sf21 insect cell extract overexpressing human EGR-1 protein as described in Yeo et al. [Journal of Investigative Dermatology 2021; 141:1851-1855]. Wild-type Sf21 cell extract was used as a negative control. After reacting 3 µg of EGR-1 overexpressing Sf21 cell extract, 1 µl of the compound of the present invention at a concentration of 20 mM, 50 fmol of the biotin-labeled EGR-1 binding deoxyoligonucleotide probe, and 1 µg poly(dI-dC) (Amersham Pharmacia Biotech Inc) for 20 minutes, electrophoresis was performed on a 6% non-denaturing polyacrylamide gel. The electrophoresed sample was transferred to a nylon membrane (Immobilon-Ny+ Transfer membrane, Millipore) and soaked in 5% skim milk solution for 30 minutes. Then, horseradish peroxidase-conjugated streptavidin was added and reacted for 15 minutes, and after washing unbound proteins from the membrane, the EGR-1-DNA complex was detected on X-ray film using an enhanced chemiluminescence (ECL) detection system (ThermoFisher Scientific). The intensity of the EGR-1-DNA complex band was analyzed using the ImageJ program (National Institute of Health, USA), and the intensity of the sample without the compound was set to 100%, and relative intensities were measured.

T1 sequence (P18146 whole entry): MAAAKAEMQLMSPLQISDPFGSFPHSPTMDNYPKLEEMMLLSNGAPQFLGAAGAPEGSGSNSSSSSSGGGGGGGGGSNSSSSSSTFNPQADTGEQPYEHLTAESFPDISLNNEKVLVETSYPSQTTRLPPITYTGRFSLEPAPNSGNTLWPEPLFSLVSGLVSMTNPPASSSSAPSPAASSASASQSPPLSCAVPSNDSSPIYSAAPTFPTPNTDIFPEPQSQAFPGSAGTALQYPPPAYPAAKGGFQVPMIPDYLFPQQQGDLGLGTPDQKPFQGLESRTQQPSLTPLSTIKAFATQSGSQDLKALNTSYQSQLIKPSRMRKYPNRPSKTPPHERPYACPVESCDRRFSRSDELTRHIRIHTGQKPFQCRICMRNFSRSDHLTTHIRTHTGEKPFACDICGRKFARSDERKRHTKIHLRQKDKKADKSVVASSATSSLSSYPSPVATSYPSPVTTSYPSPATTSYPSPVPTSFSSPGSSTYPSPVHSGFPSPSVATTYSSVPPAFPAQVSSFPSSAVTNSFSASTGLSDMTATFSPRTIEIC

| SMILES | expression level of TSLP mRNA (TSLP) | expression level of IL-1β mRNA (IL-1β) | expression level of IL-6 mRNA (IL-6) | epidermal thickness [1] [µm] | dermal thickness [1] [µm] | macroscopic skin condition [1] | expression of filaggrin [1] | expression of TSLP [1] | expression of MPO (neutrophil marker) [1] | expression of F4/80 (macrophage marker) [1] | mast cell infiltration [1] | number of mast cells infiltrated [1] [per 2.5 cm^2] | Inhibition Rate (%) (EGR-1 [2]) | DNA binding of EGR-1 (EGR-1-DNA complex band) (EGR-1 [3]) |
| --- | --- | --- | --- | --- | --- | --- | --- | --- | --- | --- | --- | --- | --- | --- |
| O=C1Nc2c(F)cccc2/C1=N/NC(=S)Nc1ccc(C(F)(F)F)cc1 [Compound 21, (Z)-2-(7-fluoro-2-oxoindolin-3-ylidene)-N-(4-(trifluoromethyl)phenyl)hydrazinethioamide] | decreased dose-dependently | decreased dose-dependently | decreased dose-dependently | 25.22±2.993 | 163.4±7.905 | significant improvement in skin condition | recovered to a level similar to normal tissue | significantly decreased | decreased similar to normal tissue | decreased similar to normal tissue | significantly reduced | 18±2 | 70.20 | inhibited DNA binding of EGR-1 in a concentration-dependent manner |
| COc1ccc2c(c1)NC(=O)/C2=N\NC(=S)Nc1cccc([N+](=O)[O-])c1 [Compound 23, (Z)-2-(6-methoxy-2-oxoindolin-3-ylidene)-N-(3-nitrophenyl)hydrazin-1-carbothioamide] | decreased dose-dependently | decreased dose-dependently | decreased dose-dependently | 22.92±3.617 | 147.5±8.302 | significant improvement in skin condition | recovered to a level similar to normal tissue | significantly decreased | decreased similar to normal tissue | decreased similar to normal tissue | significantly reduced | 19±5 | 67.63 | inhibited DNA binding of EGR-1 in a concentration-dependent manner |
| COc1ccc2c(c1)NC(=O)/C2=N\NC(=S)Nc1ccc(C#N)cc1 [Compound 25, (Z)-N-(4-cyanophenyl)-2-(6-methoxy-2-oxoindolin-3-ylidene)hydrazinethioamide] | decreased dose-dependently | decreased dose-dependently | decreased dose-dependently | 23.46±1.530 | 157.8±17.05 | significant improvement in skin condition | recovered to a level similar to normal tissue | significantly decreased | decreased similar to normal tissue | decreased similar to normal tissue | significantly reduced | 15±5 | 76.13 | inhibited DNA binding of EGR-1 in a concentration-dependent manner |
| O=C1Nc2ccc(OC(F)(F)F)cc2/C1=N/NC(=S)Nc1ccc(Br)cc1 [Compound 79, (Z)-N-(4-bromophenyl)-2-(2-oxo-5-(trifluoromethoxy)indolin-3-ylidene)hydrazinethioamide] |  |  |  |  |  |  |  |  |  |  |  |  | 42.27 |  |
| C[C@@H]1CCN(C(=O)CC#N)C[C@@H]1N(C)c1ncnc2[nH]ccc12 [tofacitinib, Tofacitinib, reference compound] |  |  |  | 27.09±1.719 | 154.5±11.32 |  | recovered to a level similar to normal tissue | significantly decreased | decreased similar to normal tissue | decreased similar to normal tissue | significantly reduced | 14±5 |  |  |
